Assay results: patent US9586907B2, “Isothiocyanate compounds, pharmaceutical compositions, and uses thereof” (priority 2006, dated 2017)
Read-outs that look alike come from different tables or passages of the source.

Experiments:
[1] = test system: clinical isolates of bacteria and fungus (including yeasts); experiment: General antimicrobial activity, semi-quantitative score on collection of clinical isolates; type: cell-based; conditions: for General antimicrobial activity: semi-quantitative score from number of sensitive bacterial strains at 100 and 200 μM, deduced from number of sensitive bacterial species and average MIC; as to General antimicrobial activity: key: −: indicating no activity; +++++: indicating highest activity
Description: The growth inhibitory effect of a number of various ITC compounds were tested on large collection of clinical isolates of bacteria and fungus (including yeasts), in order to establish a systematic structure-activity relationship for the ITC compounds. […] To assess the average activity for an individual ITC compound, the semi-quantitative score was calculated for each compound based on the number of sensitive bacterial strains at concentrations of 100 and 200 μM.

Shigella sp., BK 12440 = experiment: MIC, Shigella sp., BK 12440; type: cell-based; conditions: Gram −, 24 hours of incubation
Shigella sp., BK 12441 = experiment: MIC, Shigella sp., BK 12441; type: cell-based; conditions: Gram −, 24 hours of incubation
[2] = test system: Bacillus subtilis BK11590; experiment: MIC, Bacillus subtilis BK11590; type: cell-based; conditions: Gram +, 24 hours of incubation
M. intracellularie = experiment: MIC, M. intracellularie; type: cell-based; conditions: M. intracellularie
M. avium = experiment: MIC, M. avium; type: cell-based; conditions: M. avium
M. scrofulaceum = experiment: MIC, M. scrofulaceum; type: cell-based; conditions: M. scrofulaceum
M. cansassi = experiment: MIC, M. cansassi; type: cell-based; conditions: M. cansassi
M. fortuitum = experiment: MIC, M. fortuitum; type: cell-based; conditions: M. fortuitum
M. tuberculosis W4 = experiment: MIC, M. tuberculosis W4; type: cell-based
Description: (§1) Next, several of the bifunctional ITC compounds were tested for their ability to inhibit the growth of some clinical isolates of Mycobacteria, the results of which are summarized in Table 3 below.

M. tuberculosis 210 = experiment: MIC, M. tuberculosis 210; type: cell-based
Description: as §1

M. tuberculosis W = experiment: MIC, M. tuberculosis W; type: cell-based
Description: as §1

M. tuberculosis H37Rv = experiment: MIC, M. tuberculosis H37Rv; type: cell-based
Description: as §1

M. tuberculosis CDC1551 = experiment: MIC, M. tuberculosis CDC1551; type: cell-based
Description: as §1

M. tuberculosis P = experiment: MIC, M. tuberculosis P; type: cell-based
Description: as §1

M. tuberculosis AB = experiment: MIC, M. tuberculosis AB; type: cell-based
Description: as §1

M. bovis BCG = experiment: microbe, parasite or virus in culture; type: cell-based
[3] = test system: MRSA (Staphylococcus aureus) BK12060; experiment: MIC, MRSA BK12060
[4] = test system: MRSA (Staphylococcus aureus) BK12064; experiment: MIC, MRSA BK12064
Escherichia coli K12 = experiment: MIC, Escherichia coli K12
Bacillus cereus 4342 = experiment: MIC, Bacillus cereus 4342
Escherichia coli BK12336 = experiment: MIC, Escherichia coli BK12336
[5] = test system: Enterococcus sp., BK11936; experiment: MIC, Enterococcus sp., BK11936
[6] = test system: Enterococcus sp., BK11940; experiment: MIC, Enterococcus sp., BK11940
[7] = test system: Acinetobacter sp., BK12786; experiment: MIC, Acinetobacter sp., BK12786
[8] = test system: Acinetobacter sp., BK12787; experiment: MIC, Acinetobacter sp., BK12787
[9] = test system: Streptococcus sp., BK12233; experiment: MIC, Streptococcus sp., BK12233
[10] = test system: Streptococcus sp., BK12235; experiment: MIC, Streptococcus sp., BK12235
[11] = test system: Serattia marcescens BK12421; experiment: MIC, Serattia marcescens BK12421
[12] = test system: Serattia marcescens BK12426; experiment: MIC, Serattia marcescens BK12426
[13] = test system: Enterobacter cloacii BK12313; experiment: MIC, Enterobacter cloacii BK12313
[14] = test system: Enterobacter cloacii BK12315; experiment: MIC, Enterobacter cloacii BK12315
[15] = test system: Klebsiella pneumonii BK12260; experiment: MIC, Klebsiella pneumonii BK12260
[16] = test system: Klebsiella pneumonii BK12261; experiment: MIC, Klebsiella pneumonii BK12261
[17] = test system: Pseudomonas aeruginosa BK12347; experiment: MIC, Pseudomonas aeruginosa BK12347
[18] = test system: Pseudomonas aeruginosa BK12348; experiment: MIC, Pseudomonas aeruginosa BK12348
[19] = test system: Staphylococcus epidermidis BK12798; experiment: MIC, Staphylococcus epidermidis BK12798
[20] = Mycobacterium tuberculosis, read-out: MIC
[21] = Staphylococcus aureus, MRSA, 24 h
[22] = MRSA BK12060, Gram +, 24 hours of incubation
[23] = MRSA BK12064, Gram +, 24 hours of incubation
[24] = Escherichia coli K12, Gram −, 24 hours of incubation
[25] = Bacillus cereus 4342, Gram +, 24 hours of incubation
[26] = Escherichia coli BK12336, Gram −, 24 hours of incubation
[27] = Enterococcus sp., BK11936, Gram +, 24 hours of incubation
[28] = Enterococcus sp., BK11940, Gram +, 24 hours of incubation
[29] = Acinetobacter sp., BK12786, Gram −, 24 hours of incubation
[30] = Acinetobacter sp., BK12787, Gram −, 24 hours of incubation
[31] = Streptococcus sp., BK12233, Gram +, grown on Tryptic Soy agar medium, 24 hours
[32] = Streptococcus sp., BK12235, Gram +, grown on Tryptic Soy agar medium, 24 hours
[33] = Serattia marcescens BK12421, Gram −, 24 hours of incubation
[34] = Serattia marcescens BK12426, Gram −, 24 hours of incubation
[35] = Enterobacter cloacii BK12313, Gram −, 24 hours of incubation
[36] = Enterobacter cloacii BK12315, Gram −, 24 hours of incubation
[37] = Klebsiella pneumonii BK12260, Gram −, 24 hours of incubation
[38] = Klebsiella pneumonii BK12261, Gram −, 24 hours of incubation
[39] = Pseudomonas aeruginosa BK12347, Gram −, 24 hours of incubation
[40] = Pseudomonas aeruginosa BK12348, Gram −, 24 hours of incubation
[41] = Staphylococcus epidermidis BK12798, Gram +, 24 hours of incubation

S=C=NCc1ccc(CN=C=S)cc1 [Compound 37]
< 0.5 µg/mL: MIC ([9]; Streptococcus, 24 h) | MIC ([10]; Streptococcus, 24 h)
2 µg/mL: MIC (M. tuberculosis W4; [20]) | MIC (M. tuberculosis 210; [20]) | MIC (M. tuberculosis H37Rv; [20]) | MIC (M. tuberculosis P; [20]) | MIC (M. tuberculosis AB; [20]) | MIC (M. bovis BCG; Mycobacterium tuberculosis variant bovis BCG, BCG) | MIC (Bacillus cereus 4342; Bacillus cereus, 4342, 24 h)
1 µg/mL: MIC (M. tuberculosis W; [20])
8 µg/mL: MIC [3, 21]
0.5 µg/mL: MIC ([19]; Staphylococcus epidermidis, BK12798, 24 h)
16 µg/mL: MIC (Shigella sp., BK 12440; read-out: MIC) | MIC (Shigella sp., BK 12441; read-out: MIC) | MIC (M. scrofulaceum; Mycobacterium scrofulaceum, read-out: MIC) | MIC (Escherichia coli K12; Escherichia coli, K12, 24 h) | MIC ([5]; Enterococcus, 24 h) | MIC ([6]; Enterococcus, 24 h)
4 µg/mL: MIC ([2]; read-out: MIC) | MIC (M. cansassi; read-out: MIC) | MIC (M. tuberculosis CDC1551; [20]) | MIC [4, 21]
1 to 4 µg/mL: MIC ([1]; read-out: MIC values towards the microorganisms)
> 64 µg/mL: MIC ([7]; Acinetobacter, 24 h) | MIC ([8]; Acinetobacter, 24 h) | MIC ([13]; Enterobacter, BK12313, 24 h) | MIC ([14]; Enterobacter, BK12315, 24 h) | MIC ([15]; Klebsiella, BK12260, 24 h) | MIC ([16]; Klebsiella, BK12261, 24 h) | MIC ([17]; Pseudomonas aeruginosa, BK12347, 24 h) | MIC ([18]; Pseudomonas aeruginosa, BK12348, 24 h)
8 to 16 µg/mL: MIC (Escherichia coli BK12336; Escherichia coli, BK12336, 24 h)
32 µg/mL: MIC (M. intracellularie; read-out: MIC) | MIC (M. avium; Mycobacterium avium, read-out: MIC) | MIC (M. fortuitum; Mycolicibacterium fortuitum, read-out: MIC)
+++++: General antimicrobial activity [1]
64 µg/mL: MIC ([11]; 24 h) | MIC ([12]; 24 h)

S=C=NCCCCCCCN=C=S [Compound 41, S═C═N—(CH2)7—N═C═S]
4 µg/mL: MIC (M. tuberculosis 210) | MIC (M. tuberculosis P) | MIC [3, 22] | MIC [4, 23] | MIC [19, 41]
1 to 2 µg/mL: MIC [9, 31] | MIC [10, 32]
2 µg/mL: MIC [2] | MIC (M. tuberculosis W4) | MIC (M. tuberculosis W) | MIC (M. tuberculosis H37Rv) | MIC (M. tuberculosis CDC1551) | MIC (M. tuberculosis AB) | MIC (M. bovis BCG) | MIC (Bacillus cereus 4342; [25])
32 µg/mL: MIC (M. intracellularie) | MIC (M. avium) | MIC (M. scrofulaceum) | MIC (M. fortuitum) | MIC [7, 29] | MIC [8, 30]
64 µg/mL: MIC (Shigella sp., BK 12440) | MIC (Shigella sp., BK 12441) | MIC [17, 39] | MIC [18, 40]
+++++: General antimicrobial activity [1]
8 µg/mL: MIC (M. cansassi) | MIC [5, 27] | MIC [6, 28]
>64 µg/mL: MIC (Escherichia coli K12; [24]) | MIC (Escherichia coli BK12336; [26]) | MIC [11, 33] | MIC [12, 34] | MIC [13, 35] | MIC [14, 36] | MIC [15, 37] | MIC [16, 38]

S=C=NCCCCCCCCN=C=S [Compound 42, S═C═N—(CH2)8—N═C═S]
1 to 2 µg/mL: MIC [9, 31]
4 µg/mL: MIC (M. cansassi) | MIC (M. tuberculosis W4) | MIC (M. tuberculosis 210) | MIC (M. tuberculosis W) | MIC (M. tuberculosis H37Rv) | MIC (M. tuberculosis P) | MIC (M. tuberculosis AB) | MIC (M. bovis BCG) | MIC [4, 23]
8 µg/mL: MIC (M. tuberculosis CDC1551) | MIC [5, 27] | MIC [6, 28]
2 to 4 µg/mL: MIC [3, 22]
64 µg/mL: MIC [11, 33] | MIC [12, 34] | MIC [13, 35] | MIC [14, 36]
>64 µg/mL: MIC (Shigella sp., BK 12440) | MIC (Shigella sp., BK 12441) | MIC (Escherichia coli K12; [24]) | MIC (Escherichia coli BK12336; [26]) | MIC [7, 29] | MIC [8, 30] | MIC [15, 37] | MIC [16, 38] | MIC [17, 39] | MIC [18, 40]
32 µg/mL: MIC (M. intracellularie) | MIC (M. avium) | MIC (M. scrofulaceum) | MIC (M. fortuitum)
2 µg/mL: MIC [2] | MIC (Bacillus cereus 4342; [25]) | MIC [10, 32] | MIC [19, 41]
+++++: General antimicrobial activity [1]
